Experimental data taken from patent US6184217A (Cephalon, Inc., priority 1997, dated 2001).

Key:
[1] = system: nbm neurons; assay: Ibotenic acid lesion: Fluoro-Gold-labeled nbm neurons; format: in vivo, Sprague-Dawley rats; settings: 0.03 mg/kg s.c. every other day until 18 days post-lesion
Text: To test directly the ability of Compound A to prevent excitotoxic neuron death, nbm neurons in adult male Sprague-Dawley rats were first labeled with a long-lasting marker. This was done by injecting Fluoro-Gold (FG), a neuronal tracer that is taken up by nerve terminals and transported back to the cell body (Book et al., J. Neuropath. Exp. Neurology, 53:95-102, 1994), into target regions of nbm neurons in the frontal and parietal cortex. 7-10 days later the animals received lesion of the nbm unilaterally, using 5 μg of ibotenic acid. Beginning 18 hours after this lesion, the animals received Compound A (0.03 mg/kg) via subcutaneous injection, every other day until 18 days post-lesion. Tissue sections were collected throughout the entire rostral-caudal extent of the nbm on both sides of the brain, and numbers of nbm neurons with the FG label were counted. The counts were corrected for size differences using standard procedures, and the results expressed as the percent of labeled neurons in the nbm on the lesioned side of each animal relative to the number of labeled neurons in the nbm on the opposite unlesioned side of the brain.

[2] = system: striatal tyrosine hydroxylase (dopaminergic neurons); assay: Striatal tyrosine hydroxylase activity in high-dose MPTP-treated mice; format: in vivo; settings: MPTP 40 mg/kg s.c., 7 days
Method: In a separate experiment, the activities of Compound A were assessed in a high dose MPTP-mouse model. A single 40 mg/kg injection of MPTP produced a 95% depletion in striatal tyrosine hydroxylase enzyme activity 7 days post-injection. Administration of Compound A at daily doses of between 0.03 and 3.0 mg/kg reduced the magnitude of the lesion, in a dose dependent manner.
Mice were treated with MPTP (40 mg/kg; s.c.) 4-6 hrs after the first Compound A injection. Compound A was then injected every day until the end of the experiment which was 7 days in duration. Striata were assessed for tyrosine hydroxylase enzyme activity. Asterisk indicates statistically significant difference (p<0.05) from MPTP-Vehicle treated animals.

[3] = system: glutamatergic neurons in layer 2 of the entorhinal cortex; assay: NMDA entorhinal cortex lesion model; format: in vivo, rats; settings: 1 mg/kg s.c. daily, p<0.05
Text: Glutamate-containing neurons in layer 2 of the entorhinal cortex project to the molecular layer of the dentate gyrus, where they form synapses on the dendrites of the dentate gyrus granule cells. A lesion can be created in layer 2 of entorhinal cortex by stereotaxic injection of the excitotoxin N-methyl-D-asparate (NMDA). Under sodium pentobarbitol anesthesia, rats received an injection of NMDA (15 nmols/site) at each of 2 sites in the entorhinal cortex. Two weeks later, the rats were sacrificed and perfused with a 50 mM sodium sulfide solution. The brains were removed, sectioned in the horizontal plane at a thickness of 40 μm, and stained with either Cresyl violet or Timm'stain. The survival of neurons in layer 2 of entorhinal cortex was assessed in Cresyl violet stained sections, while the integrity of their axon terminals in the molecular layer of the dentate gyrus was measured in alternate sections stained with Timm's stain.
Injection of NMDA destroyed 62±11% (s.e.m.) of entorhinal layer 2 and decreased the area of the dentate gyrus middle molecular layer by 19±6% (s.e.m.). […] Thus, Compound A protected neurons in the entorhinal cortex from an excitotoxic lesion and maintained the integrity of their axon terminals in the dentate gyrus.

[4] = system: acrylamide-induced peripheral neuropathy; assay: Acrylamide-induced peripheral neuropathy, landing foot spread; format: in vivo, Sprague-Dawley rats; settings: 0.3 mg/kg/day s.c.; acrylamide 50 mg/kg IP three times/week for three weeks (FIG. 5)
Text: Acrylamide produces a "dying back" central-peripheral distal neuropathy in humans and animals. The lesion is a mixed sensory/motor neuropathy characterized by weakness, tremor and ataxia in humans. In animals, acrylamide produces changes in behavior (sensory, motor and proprioceptive), histopathology, electrophysiology and weight loss. In the periphery, large diameter, long axon, Ab fibers are preferentially affected by acrylamide. In rats, acrylamide administration produces an axonopathy as measured by increased landing foot spread (LFS), a measure of proprioception.
It differs from other chemically-induced models (such as chemotherapeutic models) in that the duration is relatively short (3 weeks) and the animals are in relatively good health.
Male Sprague-Dawley rats weighing 250 grams at the start of the experiment were used. Acrylamide (50 mg/kg, IP) was administered three times/week for three weeks. The animals were dropped from a height of 30 cm and the distance between the hindfeet was recorded (Edwards, P. M. and Parker, V. H. (1977) "A simple, sensitive, and objective method for early assessment of acrylamide neuropathy in rats." Toxicol. Appl Pharmacol, 40:589-591). Compound A (0.1, 0.3 or 1.0 mg/kg, s.c. in 5% solutol) was administered once daily for the duration of the experiment.

[5] = system: IL-1β; assay: LPS-induced IL-1β in the serum of mice; format: in vivo, C57BL mice; settings: LPS dose 1.0 ip; 30 mg/kg ip 2 h before LPS; vehicle 300 ± 87; N = 8
Method: Sixty female C57BL mice (4-6 weeks old) were divided into six groups, each with 10 animals. Three groups (1,3,5) received vehicle only (PBS containing 0.1% TEA (tetraethyl ammonium hydrochloride)), 200 μl/mouse via intraperitoneal (ip) administration. The other three groups (2,4,6) received Compound A (30 mg/kg in 200 μl, ip) of vehicle (PBS containing 10% of the ethyl ester of 12-hydroxystearic acid; solutol). Two hours later, the animals received by ip administration, 0.1 mg/kg of LPS (groups 1 & 2), 0.5 mg/kg of LPS (groups 3 & 4), and 1.0 mg/kg of LPS (groups 5 % 6). Two hours after LPS administration, all of the animals were sacrificed, and plasma samples were obtained and assayed for their […] and IL-1β content. Assays were carried out as described in Example 8.
The numbers in are the group numbers as described above. N indicates the number of animals from which plasma measurements where made. ND=not done.

## CCSCc1ccc2c(c1)c1c3c(c4c5cc(CSCC)ccc5n5c4c1n2C1CC(O)(C(=O)OC)C5(C)O1)CNC3=O (stereo not drawn) [Compound A]
[1]
  effect on FG-labeled neurons at mid-lesion and caudal to the lesion: declining effect
[1]; over 400 μm from midpoint of lesion, P<0.05 (FIG. 3)
  Fluoro-Gold-labeled neurons in rostral portion of lesioned nbm vs vehicle only: significantly more FG-labeled neurons
[2]; 0.03 mg/kg daily
  % Unlesioned Control: 8 ± 2.5%
  Striatal TH Activity (± SEM): 1.8 ± 0.6
[2]; 0.3 mg/kg daily
  % Unlesioned Control: 12 ± 2.5%
  Striatal TH Activity (± SEM): 2.7 ± 0.6
[2]; 3.0 mg/kg daily
  % Unlesioned Control: 23 ± 8.0%
  Striatal TH Activity (± SEM): 5.3 ± 1.8
[3]; NMDA alone 19±6% decrease
  decrease in area of dentate gyrus middle molecular layer: prevented the decrease in area of the middle molecular layer
[3]; s.e.m., NMDA alone 62±11%
  loss of entorhinal layer 2 neurons: 22±10%
[4]
  increase in landing foot spread (LFS) produced by acrylamide: reduced the magnitude of the increase in LFS
[5]
  IL-1β: 59 ± 19 pg/mL
